Data set [1] relates to Cynomolgus monkey plasma. The data set can be described thus: Species difference test: aPTT prolongation in plasma. It counts as biochemical. How it is done:
(§1) The compound of Reference Example 2-6 dissolved in DMSO was added at final concentrations of 0.03 to 200 μmol/L to the plasma of each animal species prepared using 3.2% sodium citrate. The solution was incubated at 37° C. for 6 minutes. Then, an STA reagent Cephascreen (for aPTT assay; manufactured by Roche Diagnostics K.K.) was added thereto in an amount equal to the total amount of the plasma and the DMSO solution, and the mixture was further incubated for 4 minutes. Then, STA calcium chloride (manufactured by Roche Diagnostics K.K.) was added thereto in an amount equal to the total amount of the plasma and the DMSO solution, and the time required for coagulation was measured. The concentration at which the coagulation time was prolonged two times (EC2x) was calculated for each plasma.

Data set [2] deals with Dog plasma. The data set is described as above. It counts as biochemical. The procedure: as §1
In data set [3] the test system is Mouse plasma. The description is as above. It counts as biochemical. How it is done: as §1
The subject of data set [4] is Rabbit plasma. The data set is described as above. It counts as biochemical. How it is done:
as §1

Data set [5] deals with Rat plasma. The description is as above. It counts as biochemical. How it is done:
as §1

The subject of data set [6] is human plasma. The data set is described as above. It counts as biochemical. The procedure:
as §1

Data set [7] deals with T1, Human FXa (Homo sapiens, UniProt P00742).
T1 construct: 4) Factor Xa (FXa); purchased Enzyme Research Laboratories
T1 sequence (P00742 235-488 limits assumed): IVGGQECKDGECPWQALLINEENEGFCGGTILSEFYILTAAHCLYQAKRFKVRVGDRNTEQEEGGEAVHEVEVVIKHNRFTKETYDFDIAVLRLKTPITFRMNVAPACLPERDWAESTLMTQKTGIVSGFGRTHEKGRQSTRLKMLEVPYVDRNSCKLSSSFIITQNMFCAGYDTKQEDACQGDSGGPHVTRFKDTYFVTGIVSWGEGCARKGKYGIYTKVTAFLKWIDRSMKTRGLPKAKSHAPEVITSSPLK
T1 sequence (P00742 41-179 partner limits assumed): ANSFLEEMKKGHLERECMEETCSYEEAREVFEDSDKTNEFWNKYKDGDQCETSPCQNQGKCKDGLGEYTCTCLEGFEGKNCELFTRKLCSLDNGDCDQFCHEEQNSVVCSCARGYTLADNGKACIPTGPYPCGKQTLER
The data set can be described thus: Enzyme selectivity evaluation test: FXa. It counts as biochemical. The procedure: S-2222 (Bz-Ile-Glu(γ-OR)-Gly-Arg-pNAHC1 (SEQ ID NO: 1), R═H (50%) and R═CH3 (50%)) (manufactured by Chromogenix) was added as the substrate at a final concentration of 150 μmol/L. After progression of the reaction, the absorbance was measured at OD 405 nm.

For data set [8], the target named is Human tryptase. The data set can be described thus: Enzyme selectivity evaluation test: tryptase. It counts as biochemical. The procedure:
S-2288 (H-D-Ile-Pro-Arg-pNA.2HCl) was added as the substrate at a final concentration of 300 μmol/L. After progression of the reaction, the absorbance was measured at OD 405 nm.

In data set [9] the target is Human Trypsin. Briefly: Enzyme selectivity evaluation test: trypsin. It counts as biochemical. How it is done: S-2222 (Bz-Ile-Glu(γ-OR)-Gly-Arg-pNA.HCl (SEQ ID NO: 1), R═H (50%) and R═CH3 (50%)) was added as the substrate at a final concentration of 150 μmol/L. After progression of the reaction, the absorbance was measured at OD 405 nm.
For data set [10], the system named is Rabbit nail bleeding models. Briefly: Bleeding time evaluation test using rabbit nail bleeding model. It counts as in vivo. As to conditions: for Bleeding time: Experiment 2 (maximum 60 minutes), rabbit; for Bleeding time (fold-increase): Experiment 2, ratio to vehicle group average. The procedure:
Rabbit nail bleeding models were prepared by a modification of the report of Wong et al. (Wong P C. et al., J. Thromb. Haemost. 7: 1313-1320 (2009)). Male rabbits (JW, 1.5 to 3.5 kg) were anesthetized by the inhalation of isoflurane (ISOFLU®, manufactured by DS Pharma Animal Health Co., Ltd.) (introduced anesthesia: 4%, continuous anesthesia: 2 to 3%).
For the intravenous administration of a test drug or a vehicle, an indwelling needle was inserted to the auricular vein, and the test drug or the vehicle was promptly intravenously administered (0.67 mL/kg) and then continuously intravenously administered (1 mL/kg/hr). One hour after the start of administration, three posterior toenails were cut and dipped in saline heated to approximately 37° C., and the bleeding time was measured. The bleeding time was defined as a time from the cutting to the arrest of bleeding, and an average value from the three nails was used. The measurement time was 30 minutes at the maximum for experiment 1 and 60 minutes at the maximum for experiment 2. In each experiment, if bleeding for 30 minutes or 60 minutes or longer was confirmed, the bleeding time was regarded as 30 minutes or 60 minutes.

Data set [11] has as its system Rabbit venous thrombus models. The data set can be described thus: Effect of combined use with antiplatelet drug using rabbit AVST model. It counts as in vivo. As to conditions: alone. The procedure: Rabbit venous thrombus models were prepared by a modification of the report of Wong et al. (Wong P C. et al., J. Pharmacol. Exp. Ther. 292: 351-357 (2000)). […] A tracheostomy tube was inserted to each rabbit, which was then ventilated using a respirator. For the intravenous administration of a test drug and blood collection, catheters were inserted to the right femoral vein and the right femoral artery, respectively. An arteriovenous shunt filled with saline was inserted to the carotid artery and the jugular vein. […] Also, 4-0 silk thread having a length of 5 cm was indwelled in the arteriovenous shunt. Blood was sent for 30 minutes from the carotid artery to the jugular vein via the arteriovenous shunt. The shunt was removed, and the weight of the silk thread covered with thrombus was measured. The weight of the silk thread measured before the experiment was subtracted from the measured weight, and the obtained value was used as a wet thrombus weight. One hour before the open of the arteriovenous shunt, the test drug or a vehicle was promptly intravenously administered (0.67 mL/kg) and then continuously intravenously administered (1 mL/kg/hr). The continuous injection was continued throughout the experiment. […] STA calcium chloride (manufactured by Roche Diagnostics K.K.) was added in an amount equal thereto, and the time required for coagulation was measured.

Where [12] appears, read: dose 0.5 + 0.75 mg/kg + mg/kg/h i.v.
[13] abbreviates: dose 1.5 + 2.25 mg/kg + mg/kg/h i.v.
Setting [14] is: dose 5.0 + 7.5 mg/kg + mg/kg/h i.v.
Setting [15] is: dose 15 + 22..5 mg/kg + mg/kg/h i.v.

In general, IC50 refers to the point on the concentration scale where inhibition reaches its midpoint.

Some results are limits rather than exact numbers.

As for `Cl.N[C@H](CF)[C@H]1CC[C@H](C(=O)N2CC[C@@H](C3CCCCC3)[C@H]2C(=O)Nc2ccc3[nH]c(C(=O)O)cc3c2)CC1` [Reference Example 2-6, 5-{[(3S)-1-({trans-4-[(1S)-1-Amino-2-fluoroethyl]cyclohexyl}carbonyl)-3-cyclohexyl-L-prolyl]amino}-1H-indole-2-carboxylic acid hydrochloride], the “EC2x (concentration at which the coagulation time was prolonged two times)” value is 2.6 µM in data set [1]; 34.4 µM in [2]; greater than 200 µM in data set [3]; 34.2 µM in [4]; greater than 200 µM in [5]; 0.6 µM in data set [6]. Also, the IC50 in [7], in data set [8] and in data set [9] was greater than 10 µM each time. Also, the “Bleeding time” value was 843 ± 270 s in data set [10] (setting [12]), 772 ± 234 s in data set [10] (setting [13]), 768 ± 236 s in data set [10] (setting [14]) and 656 ± 198 s in data set [10] (setting [15]). For the same compound, the “Bleeding time (fold-increase)” value in [10] (setting [12]) was found to be 1.5 ± 0.5 fold-increase; in data set [10] (setting [13]), 1.3 ± 0.4 fold-increase; in [10] (setting [14]), 1.3 ± 0.4 fold-increase; in [10] (setting [15]), 1.1 ± 0.3 fold-increase. In addition, the entries for the “PT (ratio)” value in [11] (setting [12]) and in data set [11] (setting [13]) were 1.00 ± 0.02 ratio and 1.01 ± 0.00 ratio, respectively. The Thrombus weight in [11] (setting [12]) was determined as 66 ± 22 mg; in data set [11] (setting [13]), 36 ± 6 mg. Also, the results for the “aPTT (ratio)” value in data set [11] (setting [12]) and in [11] (setting [13]) were 1.59 ± 0.15 ratio and 1.84 ± 0.10 ratio, respectively.
